From the NIST ThermoML archive (doi:10.1016/j.jct.2016.03.021)

Test: wn = mass fraction of the nth substance listed
Conditions: Liquid; for mass density: Vibrating tube method

NCCO [2-aminoethan-1-ol] + O
viscosity [mPa·s]
Conditions	w1 = 0.1	w1 = 0.1001	w1 = 0.2	w1 = 0.3	w1 = 0.3005	w1 = 0.4	w1 = 0.4001
293.15 K, 93 kPa, Concentric cylinders viscometry	1.409	–	1.982	2.967	–	4.326	–
293.15 K, 100 kPa, Falling or rolling sphere viscometry	–	1.435	1.968	–	2.913	–	4.315
293.15 K, 101 kPa, Falling or rolling sphere viscometry	1.435	–	1.968	2.913	–	4.315	–
293.15 K, 5000 kPa, Falling or rolling sphere viscometry	–	1.435	1.97	–	2.921	–	4.34
293.15 K, 10000 kPa, Falling or rolling sphere viscometry	–	1.434	1.969	–	2.93	–	4.368
293.15 K, 20000 kPa, Falling or rolling sphere viscometry	–	1.43	1.973	–	2.952	–	4.426
293.15 K, 30000 kPa, Falling or rolling sphere viscometry	–	1.43	1.977	–	2.972	–	4.475
293.15 K, 40000 kPa, Falling or rolling sphere viscometry	–	1.429	1.983	–	2.99	–	4.528
293.15 K, 60000 kPa, Falling or rolling sphere viscometry	–	1.431	1.994	–	3.032	–	4.628
293.15 K, 80000 kPa, Falling or rolling sphere viscometry	–	1.434	2.009	–	3.076	–	4.739
293.15 K, 100000 kPa, Falling or rolling sphere viscometry	–	1.432	2.026	–	3.12	–	4.845
293.15 K, 120000 kPa, Falling or rolling sphere viscometry	–	1.443	2.046	–	3.162	–	4.954
313.15 K, 93 kPa, Concentric cylinders viscometry	0.8932	–	1.198	1.675	–	2.284	–
313.15 K, 100 kPa, Falling or rolling sphere viscometry	–	0.891	1.173	–	1.638	–	2.284
313.15 K, 101 kPa, Falling or rolling sphere viscometry	0.891	–	1.173	1.638	–	2.284	–
313.15 K, 5000 kPa, Falling or rolling sphere viscometry	–	0.892	1.178	–	1.642	–	–

mass density [kg/m3]
Conditions	w1 = 0.1001	w1 = 0.2	w1 = 0.3005	w1 = 0.4
293.15 K, 100 kPa	1002.5	1006.9	1012.3	1018.1
293.15 K, 500 kPa	1002.7	1007	1012.5	1018.1
293.15 K, 1000 kPa	1002.9	1007.2	1012.7	1018.3
293.15 K, 2000 kPa	1003.3	1007.6	1013	1018.6
293.15 K, 5000 kPa	1004.6	1008.7	1014.1	1019.6
293.15 K, 10000 kPa	1006.7	1010.7	1016	1021.4
293.15 K, 15000 kPa	1008.8	1012.6	1017.7	1023.1
293.15 K, 20000 kPa	1010.9	1014.5	1019.6	1024.8
293.15 K, 30000 kPa	1015.1	1018.4	1023.2	1028.3
293.15 K, 40000 kPa	1019.1	1022.1	1026.6	1031.6
293.15 K, 50000 kPa	1023	1025.8	1030	1034.8
293.15 K, 60000 kPa	1026.9	1029.4	1033.5	1038.1
293.15 K, 70000 kPa	1030.8	1033	1036.9	1041.4
293.15 K, 80000 kPa	1034.5	1036.2	1040	1044.3
293.15 K, 90000 kPa	1038.2	1039.7	1043.3	1047.5
293.15 K, 100000 kPa	1041.8	1043.2	1046.6	1050.4
293.15 K, 110000 kPa	1045.2	1046.4	1049.6	1053.3
293.15 K, 120000 kPa	1048.8	1049.6	1052.6	1056.3
313.15 K, 100 kPa	995.9	999.1	1003.2	1007.5
313.15 K, 500 kPa	996	999.2	1003.4	1007.7
313.15 K, 1000 kPa	996.3	999.4	1003.6	1007.9
313.15 K, 2000 kPa	996.6	999.8	1004	1008.3
